Columns and labels:
Type in all cases: cell-based
[1] = Cytotoxicity on HepG2 cell line (MTT); conditions: human, HepG2 cells
Procedure: The evaluation of the cytotoxicity of the tested molecules on the HepG2 cell line was performed according to the method of Mosman ([42]) with slight modifications. […] Triplicate assays were performed for each sample. Each well was then examined under a microscope to detect possible precipitate formation before the medium was aspirated from the wells. An amount of 100 μl of MTT solution (0.5 mg/ml in medium without FBS) was then added to each well. […] After this time, the MTT solution was removed and DMSO (100 μl) was added to dissolve the resulting blue formazan crystals. Plates were shaken vigorously (700 rpm) for 10 min. The absorbance was measured at 570 nm with 630 nm as the reference wavelength using a Tecan Infinite F-200 microplate reader. DMSO was used as a blank and doxorubicin as a positive control. Cell viability was calculated as the percentage compared to the control (cells incubated without compound). […] CC50 values represent the mean values calculated from three independent experiments.

[2] = test system: P. falciparum strain K1 in RBC; assay: In vitro chemosensitivity assay, blood stage P. falciparum K1 (SYBR green I); conditions: Plasmodium falciparum, K1; erythrocytic stage, 72 h; read-out: EC50 (μM) for P. falciparum strain K1 in RBC
Procedure: Maintenance in continuous culture was done as described previously by Trager and Jensen ([46]). Cultures were maintained in fresh A+ human erythrocytes (EFS [French Blood Bank]) at 2.5% hematocrit in complete medium (RPMI 1640 with 25 mM HEPES, 25 mM NaHCO3, 10% A+ human serum) at 37°C under a reduced-O2 atmosphere (gas mixture of 10% O2, 5% CO2, and 85% N2). Parasitemia was maintained daily between 1% and 3%. The P. falciparum drug susceptibility test was carried out by comparing quantities of DNA in treated and control cultures of parasites in human erythrocytes according to a SYBR green I fluorescence-based method ([50]) using a 96-well fluorescence plate reader. Compounds, previously dissolved in DMSO (final concentration, less than 0.5% vol/vol), were incubated in a total assay volume of 200 μl of synchronized culture suspension (2% hematocrit and 0.4% parasitemia) for 72 h in a humidified atmosphere (85% N2, 10% O2, and 5% CO2) at 37°C in 96-well flat-bottom plates. Duplicate assays were performed for each sample. After incubation, plates were frozen at −20°C for 24 h. Then, the frozen plates were thawed for 1 h at 37°C. Fifteen microliters of each sample was transferred to 96-well flat-bottom black plates (Greiner Bio-one) already containing 15 μl of the SYBR green I lysis buffer (2× SYBR green I, 20 mM Tris base, pH 7.5, 20 mM EDTA, 0.008% [wt/vol] saponin, 0.08% [wt/vol] Triton X-100). […] Plates were incubated for 15 min at 37°C and then read on a Tecan Infinite F-200 spectrophotometer with excitation and emission wavelengths at 485 and 535 nm, respectively. […] EC50K1 values represent the mean values calculated from three independent experiments.

[3] = test system: P. yoelii in HepG2-CD81 cells; assay: Hepatic stage of P. yoelii in HepG2-CD81 cells; conditions: Plasmodium yoelii; hepatic schizonts
Procedure: Hepatocytes were seeded into collagen-coated black 96-well plates and maintained at 37°C in 5% CO2 in complete medium. […] The infected culture plates were centrifuged for 10 min at 900 × g, allowing fast parasite sedimentation, and further incubated with serial dilutions of M1. […] DMSO was used as a negative control. The number, size, and shape of the parasites were determined using a CellInsight high-content screening platform equipped with Studio HCS software (ThermoFisher Scientific). The parasite immunostaining was done using an […]70 antibody raised in mice and a secondary anti-mouse antibody coupled to Alexa Fluor 488 ([43]). […] Thirty-seven images, representing more than 95% of the total bottom surface area of a culture well in 96-well plates, were captured for analysis. The custom script used for counting and measuring parasites first required identification of the objects based on a fluorescence intensity threshold. The object identity was then further validated based on size and morphological (shape) criteria. The presence of DAPI-associated fluorescence in the selected objects allowed their final selection and the rejection of false positives. […] The parasitic size reduction was calculated on the average object area using the total surface area of each selected object (μm^2).

| EC50 [2] [µM] | EC50 [3] [µM] | SMILES | CC50 at 72 h [1] [µM] |
| --- | --- | --- | --- |
| – | – | COc1cccc2c1C(=O)c1c(O)c3c(c(O)c1C2=O)C[C@@](O)(C(=O)CO)C[C@@H]3O[C@H]1C[C@H](N)[C@H](O)[C@H](C)O1 [Doxorubicin, reference compound] | 0.2 |
| 0.001 | 0.003 | O=C1C(O)=C([C@H]2CC[C@H](c3ccc(Cl)cc3)CC2)C(=O)c2ccccc21 [Atovaquone, reference compound] | > 15.6 |
| 6 | – | C[C@H]1c2cccc(O)c2C(=O)C2=C(O)[C@]3(O)C(=O)C(C(N)=O)=C(O)[C@@H](N(C)C)[C@@H]3[C@@H](O)[C@@H]21 [Doxycycline, reference compound] | 20 |
| > 10 | > 10 | CC(C)(C)Nc1nc2cc(-c3ccc(C(=O)O)cc3)sc2c(=O)[nH]1 [Metabolite 10, 4-(2-(tert-Butylamino)-4-oxo-3,4-dihydrothieno[3,2-d]pyrimidin-6-yl)benzoic acid] | > 10 |

Source: publication PMC8557901 (Microbiology Spectrum, 2021)
